Test results taken from patent publication US11584765B2 (priority 2017, dated 2023).

Test system: C57BL/6 mice
Experiment: animal or person
Assay type: in vivo
Conditions: Mus musculus, sc, 0.5 h, s.c. administration, 30 min, 55° C. water, read-out: ED50 (mg/kg) at 30 min on C57BL/6 mice in Warm-water Tail-flick Test

Q: CC(C)OC[C@@]1(CCc2cccs2)CCN(Cc2cccnc2)C1 [Compound 388, (S)-3-((3-(isopropoxy-methyl)-3-(2-(thiophen-2-yl)ethyl)pyrrolidin-1-yl)methyl)pyridine] was tested. Which ED50 did it give?
A: The ED50 was < 10 mg/kg.

Q: How did the ED50 turn out when COC[C@@]1(CCc2cccs2)CCN(Cc2cccnc2)C1 [Compound 389, (S)-3-((3-(methoxymethyl)-3-(2-(thiophen-2-yl)ethyl)pyrrolidin-1-yl)methyl)pyridine] was run?
A: Its ED50 is < 10 mg/kg.

Q: How did the ED50 turn out when c1ccc(C2(CCc3cccs3)CCN(Cc3cccnc3)C2)nc1 (stereo not drawn) [Compound 390, 2-(1-(pyridin-3-ylmethyl)-3-(2-(thiophen-2-yl)ethyl)pyrrolidin-3-yl)pyridine] was run?
A: The ED50 was > 10 mg/kg.

Q: Cc1ccc(CN2CC[C@@](CCc3ccsc3)(C3CCCO3)C2)cn1.Cl (stereo partly drawn) [Compound 391, 2-methyl-5-(((3R)-3-(tetrahydrofuran-2-yl)-3-(2-(thiophen-3-yl)ethyl)pyrrolidin-1-yl)methyl)pyridine HCl] was tested. Which ED50 did it give?
A: Its ED50 is < 10 mg/kg.

Q: For FC(F)OC[C@@]1(CCc2cccs2)CCN(Cc2cccnc2)C1 [Compound 392, (S)-3-((3-((difluorometh-oxy)methyl)-3-(2-(thiophen-2-yl)ethyl)pyrrolidin-1-yl)methyl)pyridine], which ED50 is on record?
A: The ED50 was < 10 mg/kg.

Q: With CCOC1(CCc2cccs2)CCN(Cc2cccnc2)C1 (stereo not drawn) [Compound 393, 3-((3-ethoxy-3-(2-(thiophen-2-yl)ethyl)pyrrolidin-1-yl)methyl)pyridine] as the compound, how does the ED50 read?
A: The ED50 was > 10 mg/kg.

Q: Which ED50 does the source give for CCOCC1(CCc2cccs2)CN(Cc2cccnc2)C1 [Compound 394, 3-((3-(ethoxymethyl)-3-(2-(thiophen-2-yl)ethyl)azetidin-1-yl)methyl)pyridine] here?
A: The ED50 was > 10 mg/kg.

Q: How did the ED50 turn out when CCOC[C@@]1(CCc2cccs2)CCN(C2(c3cccnc3)CC2)C1 [Compound 395, (S)-3-(1-(3-(ethoxymethyl)-3-(2-(thiophen-2-yl)ethyl)pyrrolidin-1-yl)cyclopropyl)pyridine] was run?
A: Its ED50 is < 10 mg/kg.

Q: How did the ED50 turn out when CC(C)(c1cccnc1)N1CCC(CCc2cccs2)(c2ccccn2)CC1 [Compound 396, 2-(1-(2-(pyridin-3-yl)propan-2-yl)-4-(2-(thiophen-2-yl)ethyl)piperidin-4-yl)pyridine] was run?
A: The ED50 was < 10 mg/kg.

Q: With Cc1ccc(CN2C3CCC2CC(CCc2cccs2)(c2ccccn2)C3)cn1 (stereo not drawn) [Compound 397, 8-((6-methylpyridin-3-yl)methyl)-3-(pyridin-2-yl)-3-(2-(thiophen-2-yl)ethyl)-8-azabicyclo[3.2.1]octane] as the compound, how does the ED50 read?
A: The ED50 was > 10 mg/kg.

Q: CCOC[C@@]1(CCc2ccc(F)cn2)CCN(C2(c3cnc4c(c3)CCCC4)CC2)C1 [Compound 398, (S)-3-(1-(3-(ethoxymethyl)-3-(2-(5-fluoropyridin-2-yl)ethyl)pyrrolidin-1-yl)cyclopropyl)-5,6,7,8-tetrahydroquinoline] was tested. Which ED50 did it give?
A: Its ED50 is < 10 mg/kg.

Q: With CCOCC1(CCc2ccccc2)CCN(C(CC)(CC)c2ccc(C)nc2)CC1 [Compound 399, 5-(3-(4-(ethoxymethyl)-4-phenethylpiperidin-1-yl)pentan-3-yl)-2-methylpyridine] as the compound, how does the ED50 read?
A: The ED50 was > 10 mg/kg.

Q: How did the ED50 turn out when CCOCC1(CCc2ccccc2)CCN(C(CC)c2cnc(C)cc2CC)CC1 (stereo not drawn) [Compound 400, 5-(1-(4-(ethoxymethyl)-4-phenethylpiperidin-1-yl)propyl)-4-ethyl-2-methylpyridine] was run?
A: The ED50 was < 10 mg/kg.

Q: Which ED50 does the source give for CCOC(C)(C)[C@@]1(CCc2cccs2)CCN(C(C)(C)c2ccc(C)nc2)C1 [Compound 402, (S)-5-(2-(3-(2-ethoxypropan-2-yl)-3-(2-(thiophen-2-yl)ethyl)pyrrolidin-1-yl)propan-2-yl)-2-methylpyridine] here?
A: The ED50 was < 10 mg/kg.

Q: CCOC(C)(C)[C@@]1(CCc2cccs2)CCN(C(C)c2ccc(C)nc2C)C1 (stereo partly drawn) [Compound 403, 3-(1-((S)-3-(2-ethoxypropan-2-yl)-3-(2-(thiophen-2-yl)ethyl)pyrrolidin-1-yl)ethyl)-2,6-dimethylpyridine] was tested. Which ED50 did it give?
A: Its ED50 is < 10 mg/kg.

Q: Which ED50 does the source give for CCOC[C@@]1(CCc2cccs2)CCN(Cc2c(C)ccnc2C)C1 [Compound 404, (S)-3-((3-(ethoxymethyl)-3-(2-(thiophen-2-yl)ethyl)pyrrolidin-1-yl)methyl)-2,4-dimethylpyridine] here?
A: Its ED50 is < 10 mg/kg.

Q: CCOC[C@@]1(CCc2cccs2)CCN(Cc2cccnn2)C1 [Compound 405, (S)-3-((3-(ethoxymethyl)-3-(2-(thiophen-2-yl)ethyl)pyrrolidin-1-yl)methyl)pyridazine] was tested. Which ED50 did it give?
A: Its ED50 is > 10 mg/kg.

Q: Which ED50 does the source give for CCOC[C@@]1(CCc2cccnn2)CCN(Cc2cccnc2)C1 [Compound 406, (S)-3-(2-(3-(ethoxymethyl)-1-(pyridin-3-ylmethyl)pyrrolidin-3-yl)ethyl)pyridazine] here?
A: Its ED50 is > 10 mg/kg.

Q: With CCOC[C@@]1(CCc2ccc(C)s2)CCN(Cc2cnn(C)c2)C1 [Compound 407, (S)-4-((3-(ethoxymethyl)-3-(2-(5-methylthiophen-2-yl)ethyl)pyrrolidin-1-yl)methyl)-1-methyl-1H-pyrazole] as the compound, how does the ED50 read?
A: The ED50 was < 10 mg/kg.

Q: For CCOC[C@@]1(CCc2ccc(C)s2)CCN(Cc2ccc(C)nc2)C1 [Compound 408, (S)-5-((3-(ethoxymethyl)-3-(2-(5-methylthiophen-2-yl)ethyl)pyrrolidin-1-yl)methyl)-2-methylpyridine], which ED50 is on record?
A: Its ED50 is < 10 mg/kg.

Q: Which ED50 does the source give for CCOC[C@@]1(CCc2ccc(C)s2)CCN(Cc2ccc(C)nc2C)C1 [Compound 409, (S)-3-((3-(ethoxymethyl)-3-(2-(5-methylthiophen-2-yl)ethyl)pyrrolidin-1-yl)methyl)-2,6-dimethylpyridine] here?
A: Its ED50 is < 10 mg/kg.

Q: With c1ccc(C2(CCc3cccs3)CCN(Cc3cccnc3)CC2)nc1 [Compound 410, 2-(1-(pyridin-3-ylmethyl)-4-(2-(thiophen-2-yl)ethyl)piperidin-4-yl)pyridine] as the compound, how does the ED50 read?
A: The ED50 was < 10 mg/kg.

Q: Cc1ccc(C(C)(C)N2CC[C@@](CO)(CCc3cccs3)C2)cn1 [Compound 411, (S)-(1-(2-(6-methylpyridin-3-yl)propan-2-yl)-3-(2-(thiophen-2-yl)ethyl)pyrrolidin-3-yl)methanol] was tested. Which ED50 did it give?
A: The ED50 was < 10 mg/kg.

Q: With OC[C@@]1(CCc2cccs2)CCN(Cc2cccnc2)C1 [Compound 412, (S)-(1-(pyridin-3-ylmethyl)-3-(2-(thiophen-2-yl)ethyl)pyrrolidin-3-yl)methanol] as the compound, how does the ED50 read?
A: The ED50 was < 10 mg/kg.

Q: Which ED50 does the source give for Cc1ccc(CN2CC[C@@](CO)(CCc3cccs3)C2)cn1 [Compound 413, (S)-(1-((6-methylpyridin-3-yl)methyl)-3-(2-(thiophen-2-yl)ethyl)pyrrolidin-3-yl)methanol] here?
A: The ED50 was < 10 mg/kg.

Q: How did the ED50 turn out when CC(c1cccnc1)N1CC[C@@](CO)(CCc2cccs2)C1 (stereo partly drawn) [Compound 414, ((3S)-1-(1-(pyridin-3-yl)ethyl)-3-(2-(thiophen-2-yl)ethyl)pyrrolidin-3-yl)methanol] was run?
A: Its ED50 is < 10 mg/kg.

Q: How did the ED50 turn out when CC(C)(c1cccnc1)N1CC[C@@](CO)(CCc2cccs2)C1 [Compound 415] was run?
A: The ED50 was < 10 mg/kg.

Q: With CCOC[C@@]1(CCc2cccs2)CCN(Cc2c(C)cc(C)nc2C)C1 [Compound 416, (S)-3-((3-(ethoxymethyl)-3-(2-(thiophen-2-yl)ethyl)pyrrolidin-1-yl)methyl)-2,4,6-trimethylpyridine] as the compound, how does the ED50 read?
A: Its ED50 is < 10 mg/kg.

Q: For Cn1cc(CN2CCC(CCc3ccccc3)(c3ccccn3)CC2)cn1 [Compound 417, 2-(1-((1-methyl-1H-pyrazol-4-yl)methyl)-4-phenethylpiperidin-4-yl)pyridine], which ED50 is on record?
A: Its ED50 is < 10 mg/kg.

Q: Which ED50 does the source give for Cc1ccc(CN2[C@@H](C)CC(CCc3ccc(F)cc3)(c3ccccn3)C[C@@H]2C)cn1 (stereo partly drawn) [Compound 418, 5-(((2S,6S)-4-(4-fluorophenethyl)-2,6-dimethyl-4-(pyridin-2-yl)piperidin-1-yl)methyl)-2-methylpyridine] here?
A: Its ED50 is > 10 mg/kg.

Q: How did the ED50 turn out when CCOC[C@@]1(COc2ccccc2)CCN(Cc2ccc(C)nc2)C1 [Compound 419, (R)-5-((3-(ethoxymethyl)-3-(phenoxy-methyl)pyrrolidin-1-yl)methyl)-2-methylpyridine] was run?
A: Its ED50 is < 10 mg/kg.

Q: For CCOC[C@@]1(CCc2ccccn2)CCN(Cc2cccnc2)C1 [Compound 420], which ED50 is on record?
A: Its ED50 is < 10 mg/kg.

Q: Which ED50 does the source give for CCOC[C@@]1(CN(C)c2ccccc2)CCN(Cc2ccc(C)nc2)C1 [Compound 421, (S)-N-((3-(ethoxymethyl)-1-((6-methylpyridin-3-yl)methyl)pyrrolidin-3-yl)methyl)-N-methylaniline] here?
A: The ED50 was < 10 mg/kg.

Q: With CCOC[C@@]1(COc2ccc(F)cc2)CCN(Cc2ccc(C)nc2)C1 [Compound 426, (R)-5-((3-(ethoxymethyl)-3-((4-fluoro-phenoxy)methyl)pyrrolidin-1-yl)methyl)-2-methylpyridine] as the compound, how does the ED50 read?
A: Its ED50 is < 10 mg/kg.

Q: For CCOCC1(CCC2CC2)CCN(Cc2ccc(C)nc2)C1 (stereo not drawn) [Compound 427, 5-((3-(2-cyclopropylethyl)-3-(ethoxy-methyl)pyrrolidin-1-yl)methyl)-2-methylpyridine], which ED50 is on record?
A: The ED50 was < 10 mg/kg.

Q: How did the ED50 turn out when CCOC[C@@]1(CCc2cccs2)CCN(Cc2cccnc2C)C1 [Compound 428, (S)-3-((3-(ethoxymethyl)-3-(2-(thiophen-2-yl)ethyl)pyrrolidin-1-yl)methyl)-2-methylpyridine] was run?
A: The ED50 was < 10 mg/kg.

Q: How did the ED50 turn out when CCOCC1(CCc2cccs2)CN(Cc2ccc(C)nc2)C1 [Compound 429, 5-((3-(ethoxymethyl)-3-(2-(thiophen-2-yl)ethyl)azetidin-1-yl)methyl)-2-methylpyridine] was run?
A: Its ED50 is < 10 mg/kg.

Q: For CCOC[C@@]1(CCc2cccs2)CCN(Cc2cnn(C)c2)C1.Cl [Compound 430, (S)-4-((3-(ethoxymethyl)-3-(2-(thiophen-2-yl)ethyl)pyrrolidin-1-yl)methyl)-1-methyl-1H-pyrazole HCl], which ED50 is on record?
A: Its ED50 is < 10 mg/kg.

Q: CCOCC1(CCC2CC2)CCN(C(C)(C)c2ccc(C)nc2)C1 (stereo not drawn) [Compound 431, 5-(2-(3-(2-cyclopropylethyl)-3-(ethoxy-methyl)pyrrolidin-1-yl)propan-2-yl)-2-methylpyridine] was tested. Which ED50 did it give?
A: The ED50 was < 10 mg/kg.

Q: For Cc1ccc(CN2CCC(CCc3ccccc3)(c3ccccn3)CC2)cn1 [Compound 432, 2-methyl-5-((4-phenethyl-4-(pyridin-2-yl)piperidin-1-yl)methyl)pyridine], which ED50 is on record?
A: Its ED50 is < 10 mg/kg.

Q: CC(C)(c1cccnc1)N1CCC(CCc2ccccc2)(c2ccccn2)CC1 [Compound 433, 2-(4-phenethyl-1-(2-(pyridin-3-yl)propan-2-yl)piperidin-4-yl)pyridine] was tested. Which ED50 did it give?
A: Its ED50 is < 10 mg/kg.

Q: Which ED50 does the source give for CCOC[C@@]1(CCc2ccc(F)cc2)CCN(C2(c3ccc(C)nc3)CC2)C1 [Compound 434, (S)-5-(1-(3-(ethoxymethyl)-3-(4-fluoro-phenethyl)pyrrolidin-1-yl)cyclopropyl)-2-methylpyridine] here?
A: The ED50 was < 10 mg/kg.
